Active and inactive are the calls of the source.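 The calls were made as follows: active = compounds giving half or more protection of infected cells from virus-caused growth loss, again on retest; inactive = the rest.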
Tested on: CEM cells HIV-1 protection, formazan growth assay
Assay: NCI AIDS Antiviral Assay
Settings: for IC50: measured here: growth of uninfected CEM cells
Summary of the method: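 Human CEM cells, uninfected and HIV-1-infected, received five drug concentrations, and growth was read by soluble formazan assay. Compounds giving at least 50% protection were retested; reproducible 100% protection defined confirmed active.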

Row | Compound | EC50 [µM] | IC50 [µM] | outcome
1 | O=C1C(Cl)N(c2ccc([N+](=O)[O-])cc2)C1c1c[nH]c2ccccc12 (configuration not stated) | > 145 | 18.2 | 
2 | O=C(c1ccccc1)c1c(C(=O)c2ccccc2)c(-c2ccccc2)c2c(-c3ccccc3)sc(-c3ccccc3)c2c1-c1ccccc1 |  |  | inactive
3 | CN(C)c1ccc(/C=C(/NC(=O)c2ccccc2)c2nc3ccc(Cl)cc3[nH]2)cc1 | > 17.4 | > 17.4 | 
4 | O=C(O)c1ccc(N=NC2Sc3nc4ccccc4n3C2=O)cc1 (configuration not stated) | > 200 | > 200 | 
5 | Cc1ccc(S(=O)(=O)NCCCSCCSCCCN)cc1 | > 257 | 41.7 | 
6 | Cc1cc(S(=O)(=O)n2ccnc2Oc2ccccc2)c(SSc2cc(Cl)c(C)cc2S(=O)(=O)n2ccnc2Oc2ccccc2)cc1Cl | 129 | > 200 | 
7 | COCN1C(=O)[C@@H]2CCCN2C(=O)c2cc(OC)c(Cc3ccccc3)cc21 | > 200 | > 200 | 
8 | NC(CCCCNCC(N)C(=O)O)C(=O)O (configuration not stated) | > 933 | > 933 | 
9 | O=c1nc(-c2ccccc2)cc(CC(O)(c2ccc(C(F)(F)F)cc2)c2ccc(Cl)c(Cl)c2)[nH]1 (configuration not stated) | > 20 | > 20 | 
10 | CC1C(c2ccccc2)=Nn2c(=O)n(-c3ccccc3)c(=O)n21 (configuration not stated) | > 200 | > 200 | 
11 | NC(=O)C12CC3CC(CC(F)(C3)C1)C2 | > 1260 | > 1260 | 
12 | Nc1ccc(S(=O)(=O)Nc2cnc3c(Cl)cccc3n2)cc1 | > 537 | 6.46 | 
13 | O=c1cc(N=Nc2ccc(Cl)c(Cl)c2)[nH]c(=O)[nH]1 | > 2 | 1.55 | 
14 | O=C(NC(=Nc1ccccc1)SCSC(=Nc1ccccc1)NC(=O)c1ccc(Cl)cc1)c1ccc(Cl)cc1 | > 100 | > 100 | 
15 | CC1=C[C@H]2O[C@H]3C[C@H]4OC(=O)/C=C\C=C\C(=O)OCC[C@@H](C)C(O)C(=O)OC[C@@]2(CC1)[C@@]4(C)[C@]31CO1 (some centres not stated) | > 0.363 | 0.0112 | 
16 | COc1cc2c3c(c1OC)C1(C=CC(=O)C=C1)CC3N(C(C)=O)CC2 (configuration not stated) |  |  | inactive
17 | C[N+](C)(C)CC(=O)N/N=C(/Cc1nc2ccc(Cl)cc2[nH]c1=O)C1=NS(=O)(=O)c2cc(S(N)(=O)=O)c(Cl)cc2N1 | > 269 | > 269 | 
18 | CCCC(O)(CCC)C1=NCCN1 | > 200 | > 200 | 
19 | CCOCC1c2ccccc2CCN1Cc1c[nH]c2ccccc12 (configuration not stated) | > 200 | 19.5 | 
20 | O=S(=O)(c1ccccc1)N1C2CCCC21 (configuration not stated) |  |  | inactive
21 | OC1C2CCC3C2CC(C(O)(c2ccccc2)c2ccccc2)C13 (configuration not stated) | > 200 | 79.4 | 

Row | Compound | EC50 [µM] | IC50 [µM] | outcome
22 | CC1CCN(CC(=O)N2c3ccccc3Sc3cc4ccccc4cc32)CC1 | > 151 | > 151 | 
23 | NC(=O)Cc1nc2c(N)ncnc2n1C1OC(CO)C(O)C1O (configuration not stated) | > 200 | > 200 | 
24 | O=C(OC[C@H]1OC(OC(=O)c2ccccc2)C(=O)C2(OC(=O)c3ccccc3)C3C=CC(C3)C12)c1ccccc1 (some centres not stated) |  |  | inactive
25 | CCOC(=O)CCC(NC(=O)N1CCN(c2c(C)nc(C)[nH]c2=O)CC1)C(=O)OCC (configuration not stated) | > 200 | > 200 | 
26 | O=c1/c(=N\O)c(=O)c2ccccc2/c1=N\O | > 200 | 10 | 
27 | O=C(CSc1nnc(-c2ccc(N=Cc3ccc(Cl)cc3)cc2)o1)Nc1ccccc1 | > 112 | 42.7 | 
28 | O=C(Nc1c(Cl)cc([N+](=O)[O-])cc1Cl)C(=O)C(C1OC(=O)c2ccccc21)[N+](=O)[O-] (configuration not stated) | > 57.5 | > 57.5 | 
29 | N#Cc1nc(CCCN2C(=O)c3ccccc3C2=O)oc1N | > 200 | > 200 | 
30 | c1ccc2c3nnc(c2c1)SCCSCCCSCCS3 | > 200 | > 200 | 
31 | c1ccc([C@H]2CN3CCSC3=N2)cc1 | > 200 | > 200 | 
32 | OC12OC3(c4ccc(C(F)(F)F)cc4)C4C5CC(C6C5C3C61)C42 (configuration not stated) |  |  | inactive
33 | COc1c(Cl)cc(Cc2cc(Cl)c(OC)c([N+](=O)[O-])c2)cc1[N+](=O)[O-] | > 200 | > 200 | 
34 | c1ccc(SC(CCCCC(Sc2ccccc2)Sc2ccccc2)Sc2ccccc2)cc1 |  |  | inactive
35 | O=C(Nc1ccccc1)Oc1ccccc1C1CCCCC1 |  |  | inactive
36 | CC1OC(OC2C(O)COC(OC3C(C)OC(OC4C(OC(=O)[C@]56CCC(C)(C)C[C@@H]5C5=CCC7[C@@]8(C)C[C@H](O)[C@H](OC9OC(CO)C(O)C(O)C9O)[C@@](C)(CO)[C@@H]8CC[C@@]7(C)[C@]5(C)CC6)OCC(O)C4O)C(O)C3OC3OCC(O)(CO)C3O)C2O)C(O)C(O)C1O (some centres not stated) | > 30.2 | 17.8 | 
37 | NS(=O)(=O)c1ccc(NC(=S)/N=C/c2c(O)c3ccccc3[nH]c2=O)cc1 | > 200 | > 200 | 
38 | COc1cc2c[n+]3ccc4cc(OC)c(OC)cc4c3cc2cc1O |  |  | inactive
39 | COc1ccc(C23OCN(c4ccccc4)C2(c2ccc(OC)cc2)c2ccccc2N3C)cc1 (configuration not stated) | > 200 | > 200 | 
40 | CCOC(=O)C1(Cc2c[nH]c3ccccc23)C(O)CCCN1C(C)=O (configuration not stated) | > 200 | 155 | 
41 | CN(C)c1ccc(C=C2C(=O)c3ccccc3C2=O)cc1 |  |  | inactive
42 | CCOP(=O)(OCC)C(c1ccc(F)cc1)N(C(=O)NC(F)(F)F)c1cccc(C(F)(F)F)c1 (configuration not stated) | > 200 | 145 | 

Row | Compound | EC50 [µM] | IC50 [µM] | outcome
43 | O=C(O)/C=C/C(=O)NCCCCCCNC(=O)/C=C/C(=O)O |  |  | inactive
44 | CN1C(=O)N(C)C2(O)c3ccccc3C(=O)C12O (configuration not stated) | > 1000 | > 1000 | 
45 | CCOP(=O)(OCC)/C(C#N)=C/c1ccc(F)cc1 | > 891 | > 891 | 
46 | Cc1cc(C#N)c(Nc2ccc(F)cc2[N+](=O)[O-])s1 | > 200 | > 200 | 
47 | CCOC(=O)/C(F)=C/c1ccc([N+](=O)[O-])cc1 | > 41.7 | > 41.7 | 
48 | Cc1ccc(C2[C@H]3C(=O)N(c4ccc(Cc5ccc(N6C(=O)[C@@H]7ON(c8ccccc8)C(c8ccc(C)cc8)[C@@H]7C6=O)cc5)cc4)C(=O)[C@H]3ON2c2ccccc2)cc1 (some centres not stated) | > 6.76 | > 6.76 | 
49 | O=[N+]([O-])c1ccccc1SCc1ccccc1 | > 55 | 50.1 | 
50 | CC1CC[C@]2(C(=O)O)CCC3(C)C(=C2[C@H]1C)C=CC1[C@@]2(C)CC[C@H](O)C(C)(C)C2CC[C@]13C (some centres not stated) | > 100 | > 100 | 
51 | O=[N+]([O-])c1ccc(S(=O)(=O)N/N=C/c2ccccc2[N+](=O)[O-])cc1 | > 102 | > 102 | 
52 | CC1CN(C(=O)OCC23COC4(C)CCC(C)(OC2)N34)CC(C)O1 (configuration not stated) | > 200 | > 200 | 
53 | COc1c(C(=O)O)oc2c(OC)cccc12 |  |  | inactive
54 | NCC(=O)NC(CCCC(NC(=O)CN)P(=O)(O)O)P(=O)(O)O (configuration not stated) |  |  | inactive
55 | Oc1ccc(Cl)cc1/C=N/Nc1nnc(N/N=C/c2cc(Cl)ccc2O)c2ccccc12 | > 200 | 1 | 
56 | CCOC(=O)C(CC1OCCO1)C1=NC(C)(C)CC(C)O1 (configuration not stated) | > 200 | > 200 | 
57 | Cc1c2c(C#N)nccc2c(C)c2c1c1ccccc1n2Cc1ccccc1 |  |  | inactive
58 | CN(C)c1nn2c(-c3ccccc3)nnc2s1 |  |  | inactive
59 | Cc1cccc(C)c1NC(=S)NC=C(C(N)=O)C(N)=O | > 200 | > 200 | 
60 | CC(c1ccc(Br)cc1)C(C(=O)O)C(=O)O (configuration not stated) |  |  | inactive
61 | CC[N+]1(C)CCC(O)(c2ccc(Cl)c(Cl)c2)C(C(=O)c2ccc(Cl)c(Cl)c2)C1 (configuration not stated) | > 200 | 22.4 | 

Source: PubChem BioAssay AID179 (DTP/NCI, 2004)
